Results published in patent US9181264B2, “Fused heteroaryls and their uses” (Hutchison MediPharma Limited, priority 2011, dated 2015).

Experiments:
PI3Kα kinase = biological target: T1, PI3Kα kinase (Homo sapiens, UniProt P42336); experiment: PI3Ka Transcreener ADP assay (fluorescence polarization); assay type: biochemical; conditions: 10 μM ATP, 30 μmol/L lipid substrate; read-out: IC50, inhibition of PI3Kα kinase
T1 construct: purchased Invitrogen PV4788
Experimental: Fluorescence polarization was used in this assay. The final conditions for kinase assay are 10 μM of ATP, 0.2 ng/μL of PI3Kα kinase, 30 μmol/L of lipid substrate and assay buffer (50 mmol/L of HEPES (pH 7.5), 100 mmol/L of NaCl, 1 mmol/L of EGTA, 3 mmol/L of MgCl2, 1 mmol/L of DTT and 0.03% CHAPS and 2% DMSO).
5 μL of test compounds in 10% DMSO and 10 μL of 0.5 ng/μL PI3K kinase (Invitrogen, PV4788) in assay buffer are put into a 96-well plate (Greiner, Cat. 675076), and then the reaction is started by the addition of 10 μL of 75 μmol/L PIP2, (PS Lipid Substrate Invitrogen, PV5100), and 25 μmol/L ATP mixture. After the mixture is incubated for 60 minutes at room temperature, 25 μL of transcreener Kinase Kit reagent—ADP Detection Mix—(Bellbrook Labs) is added, and the reaction is continued for an additional 1.5 hours. At the end, the plate is read in a Tecan Infinite F500 at excitation of 610 nm and emission of 670 nm.
A standard curve for ADP is obtained in a parallel way by replacing compound and PI3Kα kinase with DMSO and assay buffer, respectively. Different concentration of ADP, 0-10 μM, and ATP, 10-0 μM (ATP+ADP equal to 10 μM) are applied instead of a fixed concentration of ATP in this standard curve assay. Other conditions are the same as described above. The standard curve is plotted using Origin 8.0 software. The inhibition of test compound on ADP production is calculated based on ADP concentration from standard curve. IC50 is obtained using XLfit 2.0 software.

mTOR kinase = biological target: T2, mTOR kinase (Homo sapiens, UniProt P42345); experiment: mTOR LanthaScreen TR-FRET assay; assay type: biochemical; conditions: 10 μmol/L ATP, GFP-4EBP1 substrate; read-out: IC50, inhibition of mTOR
T2 construct: purchased Invitrogen PV4753
T2 sequence (P42345 1360-2549 limits assumed): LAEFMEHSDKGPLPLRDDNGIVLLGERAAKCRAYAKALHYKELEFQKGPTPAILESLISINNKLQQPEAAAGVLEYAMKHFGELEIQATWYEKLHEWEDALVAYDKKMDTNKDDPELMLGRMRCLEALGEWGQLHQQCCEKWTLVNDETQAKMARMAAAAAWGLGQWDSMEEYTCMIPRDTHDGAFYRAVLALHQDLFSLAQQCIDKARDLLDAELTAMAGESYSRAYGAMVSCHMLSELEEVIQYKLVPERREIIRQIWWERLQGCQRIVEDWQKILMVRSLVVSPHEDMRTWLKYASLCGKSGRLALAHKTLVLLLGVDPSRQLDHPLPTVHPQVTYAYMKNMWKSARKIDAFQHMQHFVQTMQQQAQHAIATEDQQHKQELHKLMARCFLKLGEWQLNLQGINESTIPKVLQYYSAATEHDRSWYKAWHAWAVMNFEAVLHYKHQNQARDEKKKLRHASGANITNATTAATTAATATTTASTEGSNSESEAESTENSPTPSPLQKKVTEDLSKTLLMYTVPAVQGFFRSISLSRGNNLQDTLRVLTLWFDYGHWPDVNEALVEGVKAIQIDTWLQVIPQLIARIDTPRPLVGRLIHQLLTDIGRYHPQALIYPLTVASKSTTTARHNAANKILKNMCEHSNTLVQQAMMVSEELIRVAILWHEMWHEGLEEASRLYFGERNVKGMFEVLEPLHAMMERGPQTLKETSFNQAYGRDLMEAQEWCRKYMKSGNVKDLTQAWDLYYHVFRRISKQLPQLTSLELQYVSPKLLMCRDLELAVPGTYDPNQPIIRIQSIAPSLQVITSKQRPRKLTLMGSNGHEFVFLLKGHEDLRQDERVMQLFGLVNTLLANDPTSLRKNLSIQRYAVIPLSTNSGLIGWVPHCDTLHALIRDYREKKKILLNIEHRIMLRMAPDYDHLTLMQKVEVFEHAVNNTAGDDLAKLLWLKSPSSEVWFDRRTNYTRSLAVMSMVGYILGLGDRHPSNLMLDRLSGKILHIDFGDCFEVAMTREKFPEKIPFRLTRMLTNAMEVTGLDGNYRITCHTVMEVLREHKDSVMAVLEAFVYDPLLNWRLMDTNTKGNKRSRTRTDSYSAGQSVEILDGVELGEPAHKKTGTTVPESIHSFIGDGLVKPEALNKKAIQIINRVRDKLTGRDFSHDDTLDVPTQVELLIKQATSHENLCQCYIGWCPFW
Experimental: Compounds are tested using LanthaScreen TR-FRET Assay. The kinase reaction is completed in 384-well black plate (Corning, Cat. 3676). The final conditions for kinase assay are: 10 μmol/L of ATP, 0.2 ng/μL of mTOR kinase, 0.4 μmol/L of GFP-4EBP1 substrate and assay buffer (50 mmol/L of HEPES, pH 7.5, 0.01% of Tween 20, 1 mmol/L of EGTA, 10 mmol/L of MnCl2, 2 mmol/L of DTT and 1% DMSO).
To each well, 2.5 μL of test compounds in 4% DMSO and 2.5 μL of 0.8 ng/μL mTOR kinase (Invitrogen, PV4753) diluted in assay buffer are added. The reaction is initiated by the addition of 5 μL mixture of 0.8 μmol/L GFP-4EBP1 Substrate (Invitorgen, PV4759) and 20 μmol/L ATP mixtures. The mixture is incubated at room temperature for 60 minutes. 10 μL of 20 mmol/L EDTA and 4 nmol/L Tb-anti-p4EBP1 [pThr46] antibody (Invitrogen, PV4755) diluted in TR-FRET dilution buffer are added and incubated for an additional 1 hour. The plate is then read in a BioTek Synergy2 Reader at excitation of 340 nm and emission of 490 nm and 528 nm.
The inhibition of test compound is calculated based on the ratio of 528 nm/490 nm. IC50 of test compound is obtained using XLfit 2.0 software.

T1 sequence (P42336 whole entry): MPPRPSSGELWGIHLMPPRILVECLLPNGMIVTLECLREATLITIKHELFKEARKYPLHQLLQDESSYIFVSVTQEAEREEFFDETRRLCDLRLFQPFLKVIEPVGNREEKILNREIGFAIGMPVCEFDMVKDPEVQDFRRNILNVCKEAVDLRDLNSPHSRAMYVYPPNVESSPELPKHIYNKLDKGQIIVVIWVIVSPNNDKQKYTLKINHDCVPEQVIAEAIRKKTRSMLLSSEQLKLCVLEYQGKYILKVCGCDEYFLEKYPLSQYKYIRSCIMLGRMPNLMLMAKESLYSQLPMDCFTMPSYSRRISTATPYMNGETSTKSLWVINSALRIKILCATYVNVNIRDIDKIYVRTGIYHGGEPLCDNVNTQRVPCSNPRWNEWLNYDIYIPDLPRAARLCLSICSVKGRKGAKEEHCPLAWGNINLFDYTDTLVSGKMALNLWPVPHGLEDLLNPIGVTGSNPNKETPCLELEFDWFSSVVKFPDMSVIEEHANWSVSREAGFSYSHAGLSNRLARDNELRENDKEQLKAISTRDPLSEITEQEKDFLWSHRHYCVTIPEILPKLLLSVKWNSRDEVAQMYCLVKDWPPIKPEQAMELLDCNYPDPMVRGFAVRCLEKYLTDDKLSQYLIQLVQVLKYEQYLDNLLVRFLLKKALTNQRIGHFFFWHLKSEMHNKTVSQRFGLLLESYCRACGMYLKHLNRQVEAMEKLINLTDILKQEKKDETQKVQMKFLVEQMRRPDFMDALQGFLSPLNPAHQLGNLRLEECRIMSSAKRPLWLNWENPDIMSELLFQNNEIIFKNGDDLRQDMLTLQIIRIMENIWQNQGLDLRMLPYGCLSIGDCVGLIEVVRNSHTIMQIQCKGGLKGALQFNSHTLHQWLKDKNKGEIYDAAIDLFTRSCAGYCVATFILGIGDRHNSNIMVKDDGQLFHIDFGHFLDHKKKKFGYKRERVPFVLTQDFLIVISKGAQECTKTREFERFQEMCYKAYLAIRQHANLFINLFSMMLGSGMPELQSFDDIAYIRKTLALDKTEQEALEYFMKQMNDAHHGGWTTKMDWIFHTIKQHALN
T1 sequence (P27986 whole entry partner): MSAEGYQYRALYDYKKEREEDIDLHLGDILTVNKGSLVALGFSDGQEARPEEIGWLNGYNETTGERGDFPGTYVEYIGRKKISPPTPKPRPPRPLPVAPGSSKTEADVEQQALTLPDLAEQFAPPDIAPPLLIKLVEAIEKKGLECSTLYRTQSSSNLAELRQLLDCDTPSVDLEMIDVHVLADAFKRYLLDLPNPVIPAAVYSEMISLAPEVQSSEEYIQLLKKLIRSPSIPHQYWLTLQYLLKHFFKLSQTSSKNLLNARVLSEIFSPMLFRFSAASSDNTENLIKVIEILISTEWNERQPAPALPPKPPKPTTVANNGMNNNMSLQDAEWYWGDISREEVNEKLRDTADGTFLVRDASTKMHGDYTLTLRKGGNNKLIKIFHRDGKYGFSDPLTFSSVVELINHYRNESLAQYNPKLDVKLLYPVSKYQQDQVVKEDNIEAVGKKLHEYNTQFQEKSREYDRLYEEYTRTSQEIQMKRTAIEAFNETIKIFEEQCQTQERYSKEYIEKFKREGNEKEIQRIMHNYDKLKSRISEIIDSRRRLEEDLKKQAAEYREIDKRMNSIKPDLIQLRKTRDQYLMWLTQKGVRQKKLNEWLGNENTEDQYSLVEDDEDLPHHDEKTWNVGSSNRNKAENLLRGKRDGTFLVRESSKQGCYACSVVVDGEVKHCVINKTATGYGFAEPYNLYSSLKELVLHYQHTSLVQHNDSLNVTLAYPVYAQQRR

Row | Compound | IC50 (PI3Kα kinase) [nM] | IC50 (mTOR kinase) [nM]
1 | CC(C)C(=O)N1CCC(n2nnc3cnc4ccc(-c5cnc(N)c(C(F)(F)F)c5)nc4c32)CC1 [Compound 30, 1-(4-(8-(6-amino-5-(trifluoromethyl)pyridin-3-yl)-1H-[1,2,3]triazolo[4,5-c][1,5]naphthyridin-1-yl)piperidin-1-yl)-2-methylpropan-1-one] | < 100 | < 100
2 | CCCC(=O)N1CCC(n2nnc3cnc4ccc(-c5cnc(N)c(C(F)(F)F)c5)nc4c32)CC1 [Compound 35] | < 100 | < 100
3 | CC1(CN2CCC(n3nnc4cnc5ccc(-c6cnc(N)c(C(F)(F)F)c6)nc5c43)CC2)COC1 [Compound 44] | < 100 | < 100
4 | CC(C)(C#N)c1ccc(-c2nnc3cnc4ccc(-c5cnc(N)c(C(F)(F)F)c5)cc4n23)cc1 [Compound 49, 2-(4-(8-(6-amino-5-(trifluoromethyl)pyridin-3-yl)-[1,2,4]triazolo[4,3-a]quinoxalin-1-yl)phenyl)-2-methylpropanenitrile] | < 100 | < 100
5 | CC(C)(C#N)c1ccc(-c2nnc3cnc4ccc(-c5cnc6[nH]ncc6c5)cc4n23)cc1 [Compound 53] | < 100 | < 100
6 | CC(C)(C#N)c1ccc(-c2nnc3cnc4ccc(-c5ccc6nc(N)oc6c5)cc4n23)cc1 [Compound 55] | < 100 | < 100
7 | CCOc1cc(-c2ccc3ncc4nnc(-c5ccc(C(C)(C)C#N)cc5)n4c3c2)cnc1N [Compound 75] | < 100 | < 100
8 | CS(=O)(=O)N1CCC(n2cnc3cnc4ccc(-c5cnc(N)c(C(F)(F)F)c5)nc4c32)CC1 [Compound 103] | < 100 | < 100
9 | CC1(CN2CCC(n3cnc4cnc5ccc(-c6cnc(N)c(C(F)(F)F)c6)nc5c43)CC2)COC1 [Compound 105] | < 100 | < 100
10 | C[C@H](O)C(=O)N1CCC(n2cnc3cnc4ccc(-c5cnc(N)c(C(F)(F)F)c5)nc4c32)CC1 [Compound 107] | < 100 | < 100
11 | Cc1nc2cnc3ccc(-c4cnc(N)c(C(F)(F)F)c4)nc3c2n1C1CCN(C(=O)C2CC2)CC1 [Compound 119, (4-(8-(6-amino-5-(trifluoromethyl)pyridine-3yl)-2-methyl-1H-imidazo[4,5-c][1,5]naphthyridin-1-yl)piperidin-1-yl)(cyclopropyl)methanone] | < 100 | < 100
12 | Cc1nc2cnc3ccc(-c4cnc(N)c(C(F)(F)F)c4)nc3c2n1C1CCN(CC2(C)COC2)CC1 [Compound 121] | < 100 | < 100
13 | Cc1nc2cnc3ccc(-c4cnc(N)c(C(F)(F)F)c4)nc3c2n1C1CCN(C(=O)[C@H](C)O)CC1 [Compound 122] | < 100 | < 100
14 | Cc1nc2cnc3ccc(-c4cnc(N)c(C(F)(F)F)c4)nc3c2n1C1CCN(CC(=O)N(C)C)CC1 [Compound 123] | < 100 | < 100
15 | COc1ncc(-c2ccc3ncc4nnc(C)n4c3c2)cc1NS(=O)(=O)c1ccc(F)cc1F [Compound 147, 2,4-difluoro-N-(2-methoxy-5-(1-methyl-[1,2,4]triazolo[4,3-a]quinoxalin-8-yl)pyridin-3-yl)benzenesulfonamide] | < 100 | < 100
16 | COc1ncc(-c2ccc3ncc4nn(C)c(=O)n4c3c2)cc1NS(=O)(=O)c1ccc(F)cc1F [Compound 148] | < 100 | < 100
17 | COc1ncc(-c2ccc3ncc4nc(C)n(C)c4c3n2)cc1NS(=O)(=O)c1ccc(F)cc1F [Compound 151] | < 100 | < 100
18 | COc1ncc(-c2ccc3ncc4nnc(-c5ccc(F)cc5)n4c3c2)cc1NS(C)(=O)=O [Compound 152] | < 100 | < 100
19 | COc1ncc(-c2ccc3ncc4ncn(C)c4c3n2)cc1NS(=O)(=O)c1ccc(F)cc1F [Compound 153] | < 100 | < 100

The next lines start with the values.

Row | IC50 (PI3Kα kinase) [nM] | IC50 (mTOR kinase) [nM] | Compound
20 | < 100 | < 100 | CC(C)(O)C(=O)N1CCC(n2nnc3cnc4ccc(-c5cnc(N)c(C(F)(F)F)c5)nc4c32)CC1 [Compound 26]
21 | < 100 | < 100 | N#CC1(C(=O)N2CCC(n3nnc4cnc5ccc(-c6cnc(N)c(C(F)(F)F)c6)nc5c43)CC2)CC1 [Compound 33]
22 | < 100 | < 100 | Cn1c(=O)n(-c2ccc(C(C)(C)C#N)nc2)c2c3cc(-c4cnc(N)nc4)ccc3ncc21 [Compound 42]
23 | < 100 | < 100 | CN(C)C(=O)CN1CCC(n2nnc3cnc4ccc(-c5cnc(N)c(C(F)(F)F)c5)nc4c32)CC1 [Compound 43, 2-(4-(8-(6-amino-5-(trifluoromethyl)pyridin-3-yl)-1H-[1,2,3]triazolo[4,5-c][1,5]naphthyridin-1-yl)piperidin-1-yl)-N,N-dimethylacetamide]
24 | < 100 | < 100 | CCNC(=O)N1CCC(n2nnc3cnc4ccc(-c5cnc(N)c(C(F)(F)F)c5)nc4c32)CC1 [Compound 45]
25 | < 100 | < 100 | Nc1ncc(-c2ccc3ncc4nnn(C5CCN(CCO)CC5)c4c3n2)cc1C(F)(F)F [Compound 46]
26 | < 100 | < 100 | CC(C)(C#N)c1ccc(-c2nnc3cnc4ccc(-c5ccc(N)nc5)cc4n23)cc1 [Compound 50]
27 | < 100 | < 100 | CC(C)(C#N)c1ccc(-c2nnc3cnc4ccc(-c5ccc6nc(N)sc6c5)cc4n23)cc1 [Compound 52]
28 | < 100 | < 100 | CC(C)(C#N)c1ccc(-c2nnc3cnc4ccc(-c5ccc6nc(N)sc6c5)cc4n23)cn1 [Compound 56]
29 | < 100 | < 100 | Cc1cc(-c2ccc3ncc4nnc(-c5ccc(C(C)(C)C#N)cc5)n4c3c2)cnc1N [Compound 58]
30 | < 100 | < 100 | N#Cc1cccc(-c2nnc3cnc4ccc(-c5ccc6nc(N)sc6c5)cc4n23)c1 [Compound 63]
31 | < 100 | < 100 | CC(C)(C#N)c1ccc(-c2nnc3cnc4ccc(-c5cnc(N)c(F)c5)cc4n23)cc1 [Compound 66]
32 | < 100 | < 100 | COc1cc(-c2ccc3ncc4nnc(-c5ccc(C(C)(C)C#N)cc5)n4c3c2)cnc1N [Compound 72]
33 | < 100 | < 100 | Nc1ncc(-c2ccc3ncc4ncn(C5CCN(C(=O)C6CC6)CC5)c4c3n2)cc1C(F)(F)F [Compound 88, (4-(8-(6-amino-5-(trifluoromethyl)pyridine-3-yl)-1H-imidazo[4,5-c][1,5]naphthyridin-1-yl)piperidin-1-yl)(cyclopropyl)methanone]
34 | < 100 | < 100 | CCC(=O)N1CCC(n2cnc3cnc4ccc(-c5cnc(N)c(C(F)(F)F)c5)nc4c32)CC1 [Compound 96]
35 | < 100 | < 100 | CN(C)C(=O)CN1CCC(n2cnc3cnc4ccc(-c5cnc(N)c(C(F)(F)F)c5)nc4c32)CC1 [Compound 98]
36 | < 100 | < 100 | CC(=O)N1CCC(n2cnc3cnc4ccc(-c5cnc(N)c(C(F)(F)F)c5)nc4c32)CC1 [Compound 102]
37 | < 100 | < 100 | Nc1ncc(-c2ccc3ncc4ncn(C5CCOCC5)c4c3n2)cc1C(F)(F)F [Compound 106]
38 | < 100 | < 100 | CCC(=O)N1CCC(n2c(C)nc3cnc4ccc(-c5cnc(N)c(C(F)(F)F)c5)nc4c32)CC1 [Compound 120]
39 | < 100 | < 100 | Cc1nc2cnc3ccc(-c4cnc(N)c(C(F)(F)F)c4)nc3c2n1C1CCN(CCO)CC1 [Compound 129]
40 | < 100 | < 100 | CCc1nc2cnc3ccc(-c4cnc(N)c(C(F)(F)F)c4)nc3c2n1C1CCOCC1 [Compound 131]
41 | < 100 | < 100 | CCn1nc2cnc3ccc(-c4cnc(OC)c(NS(=O)(=O)c5ccc(F)cc5F)c4)cc3n2c1=O [Compound 149]
